Consider 51 compounds from patent publication US8158621B2, “Methods of treating or preventing autoimmune diseases with 2,4-pyrimidinediamine compounds” (Rigel Pharmaceuticals, Inc., priority 2002, dated 2012).

The structures appear in SMILES notation.

One test deals with Human Jurkat T-cells (clone N). Put plainly: Jurkat T-cell activation (anti-TCR, CD69 upregulation). In kind it is cell-based.
Conditions: not given
The method in brief:
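Jurkat cells in RPMI + 5% FBS preincubated with compound 1 h at 37 °C, then stimulated with anti-TCR C305 at 500 ng/ml for 20 h. CD69 surface expression stained with anti-CD69-APC and read by flow cytometry; IC50 versus solvent-only control.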
As for `CN(C)CCCNC(=O)CNc1cccc(Nc2ncc(F)c(Nc3cccc(NCCO)c3)n2)c1` [Compound R950237], the IC50 turned out to be 12.9 µM.
Still for that read-out and setting: as for `Cc1ccc(Nc2ncc(F)c(Nc3ccc(C)c(O)c3)n2)cc1O` [Compound R926341], the figure is 3.68 µM; as for `OCCCn1ncc2cc(Nc3ncc(F)c(Nc4cccc(O)c4)n3)ccc21` [Compound R935304], 0.497 µM; as for `O=C(CNc1cccc(Nc2ncc(F)c(Nc3cccc(NCCO)c3)n2)c1)N1CCNCC1` [Compound R950241], 5.19 µM.
As for `CNC(=O)COc1cccc(Nc2ncc(F)c(Nc3cccc(C(C)(C)C)c3)n2)c1` [Compound R940276], the IC50 was determined as 2.53 µM.
Compound `CNC(=O)COc1cccc(Nc2ncc(F)c(Nc3ccc4c(c3)C(N)CCO4)n2)c1` (stereo not drawn) [Compound R950368] gave an IC50 of 0.125 µM.
The same measure, in the same setting: as for `COc1ccc(Nc2ncc(F)c(Nc3ccc(OC)c(-c4ccccc4)c3)n2)cc1-c1ccccc1` [Compound R926399], the figure is more than 10 µM; as for `CC(C)(C)c1cccc(Nc2nc(Nc3cccc(OCC(=O)NCC(O)CO)c3)ncc2F)c1` (stereo not drawn) [Compound R940277], 1.22 µM.
Same read-out and setting: as for `CC(C)Oc1ccc(Nc2nc(Nc3ccc4oc(C(=O)N5CCCC5)cc4c3)ncc2F)cc1` [Compound R926703], the figure is 7.87 µM; as for `CNC(=O)COc1cccc(Nc2ncc(F)c(Nc3ccc4c(c3)C(N=[N+]=[N-])CCO4)n2)c1` (stereo not drawn) [Compound R950383], 1.03 µM; as for `O=C(CNc1cccc(Nc2ncc(F)c(Nc3ccc4c(c3)OCCO4)n2)c1)NCCNCc1ccccc1` [Compound R950198], 1.99 µM.
The same measure, in the same setting: the same measure for `Cc1cc(Nc2nc(Nc3cccc(OCCN4CCOCC4)c3)ncc2F)cc(C)c1O` [Compound R940255]: 1.51 µM.
With `CNC(=O)COc1cccc(Nc2ncc(F)c(Nc3cccc(C(N)=O)c3)n2)c1` [Compound R940299], the IC50 worked out at 24.9 µM.
Same read-out and setting: the same measure for `CCOC(=O)C(C)(C)Oc1cccc(Nc2ncc(F)c(Nc3cccc(O)c3)n2)c1` [Compound R926906]: more than 10 µM; for `Nc1cccc(Nc2nc(Nc3cccc(Nc4ncc(F)c(Nc5cccc(N)c5)n4)c3)ncc2F)c1` [Compound R950137]: 5.9 µM.
Same read-out and setting: the same measure for `COc1ccc(Nc2nc(NC3CCN(Cc4ccccc4)CC3)ncc2F)cc1OC` [Compound R940263]: 10.1 µM.
On the same count and under the same terms, the same measure for `Fc1cnc(Nc2ccc(N3CCOCC3)cc2)nc1Nc1ccc(N2CCOCC2)cc1` [Compound R926114]: 9.91 µM; for `COc1ccc(Nc2nc(Nc3cc(C)c(O)c(Cl)c3)ncc2F)cc1CN1CCNCC1` [Compound R940318]: 1.39 µM.
`Nc1ccc(Nc2ncc(F)c(Nc3ccc(N)cc3)n2)cc1` [Compound R950121] gave an IC50 of 6.27 µM.
The same measure, in the same setting: as for `CCCNC(=O)COc1ccc(Nc2ncc(C#N)c(Nc3ccc(OCC(=O)NCCC)cc3)n2)cc1` [Compound R925853], the figure is more than 10 µM; as for `CNC(=O)COc1cccc(Nc2ncc(F)c(Nc3ccc4cc(C(=O)OC)[nH]c4c3)n2)c1` [Compound R926904], 1.36 µM; as for `CCOC(=O)C(C)(C)c1ccc(Nc2nc(Nc3ccc4c(c3)OCCO4)ncc2F)cc1` [Compound R935148], more than 10 µM.
As for `O=[N+]([O-])c1cccc(Nc2nc(Nc3ccc4c(c3)NCCO4)ncc2F)c1` [Compound R950253], the IC50 stood at 10.5 µM.
Regarding `CNC(=O)COc1cccc(Nc2ncc(F)c(Nc3cccc(N)c3)n2)c1` [Compound R950262], the IC50 is 3.15 µM.
On the same count and under the same terms, as for `O=C(COc1cccc(Nc2ncc(F)c(Nc3ccc4c(c3)OCCO4)n2)c1)N1CCOCC1` [Compound R926484], the figure is more than 10 µM; as for `CNC(=O)COc1cccc(Nc2ncc(F)c(Nc3cccc(OC)c3)n2)c1` [Compound R926738], 2.22 µM.
The same measure, in the same setting: as for `COc1ccc(-c2ccccc2)cc1Nc1ncc(F)c(Nc2cc(-c3ccccc3)ccc2OC)n1` [Compound R926400], the figure is more than 10 µM; as for `Nc1cccc(Nc2ncc(F)c(Nc3cccc(NCCOCc4ccccc4)c3)n2)c1` [Compound R950175], more than 10 µM; as for `O=C(COc1cccc(Nc2ncc(F)c(Nc3ccc4c(c3)OCCO4)n2)c1)NCCOC(=O)CCCCC1SCC2NC(=O)NC21` (stereo not drawn) [Compound R926811], 1.28 µM.
The same measure, in the same setting: as for `CCOC(=O)C(C)(C)c1ccc(Nc2ncc(F)c(Nc3cccc(O)c3)n2)cc1` [Compound R935152], the figure is 19.9 µM.
As to `CC(=O)Nc1cccc(N(C(C)=O)c2ncc(F)c(N(C(C)=O)c3cccc(N(C(C)=O)C(C)=O)c3)n2)c1` [Compound R950245], the IC50 is more than 10 µM.
On the same count and under the same terms, the same measure for `CCOC(=O)COc1ccc(Nc2nc(Cl)c(Cl)c(Nc3ccc(OCC(=O)OCC)cc3)n2)cc1` [Compound R926569]: more than 10 µM; for `CC(C)Oc1ccc(Nc2ncc(F)c(Nc3ccc(OCc4nc(-c5ccccc5)no4)cc3)n2)cc1` [Compound R935139]: 11 µM.
`CC(C)(C)OC(=O)COc1ccc(Nc2ncc(F)c(Nc3ccc(OCC(=O)OC(C)(C)C)cc3)n2)cc1` [Compound R926574] yielded an IC50 of more than 10 µM.
For the compound `CNC(=O)COc1cccc(Nc2ncc(F)c(Nc3ccc4c(c3)OCCN4C)n2)c1` [Compound R908705], the IC50 amounted to 5.88 µM.

Still in this test, the particulars now being: Homo sapiens.
`CC(C)NC(=O)Oc1cccc(Nc2ncc(F)c(Nc3cccc(OC(=O)NC(C)C)c3)n2)c1` [Compound R926412] displayed an IC50 of 2.38 µM.

The test is the same for the next values; noted with them: Homo sapiens, Jurkat.
In turn, `CC(C)(CO)c1ccc(Nc2ncc(F)c(Nc3cccc(O)c3)n2)cc1` [Compound R935153] had an IC50 of 7.07 µM.
In turn, `CCOc1ccc(Nc2ccnc(Nc3ccc(OCC)cc3)n2)cc1` [Compound R926069] came in with an IC50 of 4.31 µM.
Same read-out and setting: as for `COC(=O)c1cc(Nc2ncc(F)c(Nc3cccc(O)c3)n2)ccc1OC` [Compound R940301], the figure is 1.31 µM; as for `O=C(O)c1cc(Nc2ncc(F)c(Nc3ccc(O)c(C(=O)O)c3)n2)ccc1O` [Compound R945041], more than 10 µM; as for `Fc1cnc(Nc2ccc3cc[nH]c3c2)nc1Nc1ccc2c(c1)OCCO2` [Compound R926750], 0.535 µM.
On the same count and under the same terms, the same measure for `Fc1cnc(NCc2csc3ccccc23)nc1NCc1csc2ccccc12` [Compound R945145]: more than 10 µM; for `Nc1nc(N(c2ccc(CO)cc2)c2ccc3c(c2)OCCO3)ncc1F` [Compound R925760]: 20.2 µM.
The same measure, in the same setting: as for `COc1cc(Nc2nc(Nc3cccc(O)c3)ncc2F)cc(OC)c1` [Compound R926802], the figure is 5.91 µM; as for `Oc1cccc(Nc2nc(NCc3csc4ccccc34)ncc2F)c1` [Compound R945164], more than 10 µM; as for `COc1cc(Nc2nc(Cl)ncc2F)c(OC)cc1Cl` [Compound R926858], more than 10 µM.
`COc1cc(-c2ccccc2)c(C)cc1Nc1ncc(Br)c(Nc2cc(C)c(-c3ccccc3)cc2OC)n1` [Compound R925801] yielded an IC50 of more than 10 µM.
Still for that read-out and setting: as for `COc1cc(Nc2ncc(F)c(Nc3ccc4c(c3)OCCO4)n2)cc(OC)c1OC` [Compound R926762], the figure is 0.703 µM; as for `COC(=O)c1cc(Nc2ncc(F)c(Nc3cccc(O)c3)n2)cc(C(F)(F)F)c1` [Compound R926863], more than 10 µM.
The compound `CC(C)(CO)c1ccc(Nc2nc(Nc3ccc(OCCO)cc3)ncc2F)cc1` [Compound R935158] displayed an IC50 of 2.47 µM.
On the same count and under the same terms, the same measure for `COC(=O)c1cc2cc(Nc3ncc(F)c(Nc4cccc(C(C)C)c4)n3)ccc2o1` [Compound R940283]: more than 10 µM.

What is called IC50 is the point on the concentration scale where inhibition reaches its midpoint.
